Test results: patent publication US12692254B2, “Benzimidazole inhibitors of PAD enzymes” (BRISTOL-MYERS SQUIBB COMPANY, priority 2018, dated 2026)

Biological target: human PAD4 (hPAD4) (Homo sapiens, UniProt Q9UM07)
Experiment: RFMS human PAD4 functional assay (rapid-fire mass spectrum)
Type: biochemical
Conditions: 5 nM hPAD4 enzyme, 250 μM BAEE, 50 μM Calcium; 30 min preincubation, 90 min reaction at 37° C.
Outline: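 PAD4 (10 nM) preincubated 30 min with compound (top final 50 μM), then BAEE substrate added in pH 7.5 HEPES buffer with DTT, 50 μM calcium, TPEN; 90 min at 37° C. After TCA quench, citrulline derivatized with phenyl glyoxal (4 mM final, 30 min, 37° C) and quantified by RapidFire MS against internal standard.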

Sequence of human PAD4 (hPAD4) (Q9UM07 whole entry): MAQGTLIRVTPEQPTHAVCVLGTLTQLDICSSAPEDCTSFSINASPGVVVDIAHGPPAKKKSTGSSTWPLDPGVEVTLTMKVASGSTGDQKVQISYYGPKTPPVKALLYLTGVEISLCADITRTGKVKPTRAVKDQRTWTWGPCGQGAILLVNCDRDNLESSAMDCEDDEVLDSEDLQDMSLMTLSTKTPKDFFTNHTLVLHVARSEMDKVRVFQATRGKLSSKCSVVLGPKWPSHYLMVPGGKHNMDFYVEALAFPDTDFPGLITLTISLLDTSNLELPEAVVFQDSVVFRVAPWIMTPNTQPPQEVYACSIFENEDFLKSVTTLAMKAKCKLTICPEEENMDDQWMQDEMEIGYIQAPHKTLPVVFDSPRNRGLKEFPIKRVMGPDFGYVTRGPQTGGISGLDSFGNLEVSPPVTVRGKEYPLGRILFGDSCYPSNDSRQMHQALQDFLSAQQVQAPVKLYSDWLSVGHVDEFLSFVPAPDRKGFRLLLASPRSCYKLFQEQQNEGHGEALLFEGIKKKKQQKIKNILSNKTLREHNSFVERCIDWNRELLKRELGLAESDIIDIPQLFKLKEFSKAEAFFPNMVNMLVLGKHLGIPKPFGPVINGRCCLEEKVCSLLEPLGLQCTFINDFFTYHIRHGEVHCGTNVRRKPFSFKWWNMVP

IC50	Structure (SMILES)
780 nM	COc1cc(C(=O)N2C[C@H](N)C[C@@H](F)C2)cc2nc(-c3cc4ccccc4n3CC3CC3)n(Cc3ccccc3)c12 [Example 282, (3R,5R)-1-{1-benzyl-2-[1-(cyclopropylmethyl)-1H-indol-2-yl]-7-methoxy-1H-1,3-benzodiazole-5-carbonyl}-5-fluoropiperidin-3-amine]
127 nM	COc1cc(C(=O)N2C[C@H]3CC[C@@H]2[C@@H]3N)cc2nc(-c3cc4ccccc4n3CC3CC3)n(Cc3csc(C)n3)c12 [Example 269, (1R,4R,7R)-2-{2-[1-(cyclopropylmethyl)-1H-indol-2-yl]-7-methoxy-1-[(2-methyl-1,3-thiazol-4-yl)methyl]-1H-1,3-benzodiazole-5-carbonyl}-2-azabicyclo[2.2.1]heptan-7-amine]
479 nM	COc1cc(C(=O)N2CC3CCC2[C@@H]3N)cc2nc(-c3cc4cccnc4n3CC3CC3)n(C3CN(S(=O)(=O)c4ccc(Cl)nc4)C3)c12 (stereo partly drawn) [Example 337]
18 nM	COc1cc(C(=O)N2C[C@H]3CC[C@@H]2[C@@H]3N)cc2nc(-c3cc4ccccc4n3CC3CC3)n(CC3CN(C(=O)c4ccccc4)C3)c12 [Example 145, (1R,4R,7R)-2-{1-[(1-benzoylazetidin-3-yl)methyl]-2-[1-(cyclopropylmethyl)-1H-indol-2-yl]-7-methoxy-1H-1,3-benzodiazole-5-carbonyl}-2-azabicyclo[2.2.1]heptan-7-amine]
28 nM	COc1cc(-n2cc(Cn3c(-c4cc5ccccc5n4CC4CC4)nc4cc(C(=O)N5CC6CCC5[C@@H]6N)cc(OC)c43)cn2)ccn1 (stereo partly drawn) [Example 366, (7R)-2-{2-[1-(cyclopropylmethyl)-1H-indol-2-yl]-7-methoxy-1-{[1-(2-methoxypyridin-4-yl)-1H-pyrazol-4-yl]methyl}-1H-1,3-benzodiazole-5-carbonyl}-2-azabicyclo[2.2.1]heptan-7-amine]
119 nM	COc1cc(C(=O)N2C[C@H]3CC[C@@H]2[C@@H]3N)cc2nc(-c3cc4cccnc4n3CC3CC3)n(CC3CN(c4nccs4)C3)c12 [Example 47, (1R,4R,7R)-2-{2-[1-(cyclopropylmethyl)-1H-pyrrolo[2,3-b]pyridin-2-yl]-7-methoxy-1-{[1-(1,3-thiazol-2-yl)azetidin-3-yl]methyl}-1H-1,3-benzodiazole-5-carbonyl}-2-azabicyclo[2.2.1]heptan-7-amine]
85 nM	COc1cc(C(=O)N2C[C@H]3CC[C@@H]2[C@@H]3N)cc2nc(-c3cc4cccnc4n3CC3CC3)n(CC3CN(c4ccnc(C#N)c4)C3)c12 [Example 31, 4-[3-({5-[(1R,4R,7R)-7-amino-2-azabicyclo[2.2.1]heptane-2-carbonyl]-2-[1-(cyclopropylmethyl)-1H-pyrrolo[2,3-b]pyridin-2-yl]-7-methoxy-1H-1,3-benzodiazol-1-yl}methyl)azetidin-1-yl]pyridine-2-carbonitrile]
100 nM	COc1cc(C(=O)N2C[C@H]3CC[C@@H]2[C@@H]3N)cc2nc(-c3cc4cccnc4n3CC3CC3)n(CC3CN(C(=O)C4CC4)C3)c12 [Example 123, (1R,4R,7R)-2-{1-[(1-cyclopropanecarbonylazetidin-3-yl)methyl]-2-[1-(cyclopropylmethyl)-1H-pyrrolo[2,3-b]pyridin-2-yl]-7-methoxy-1H-1,3-benzodiazole-5-carbonyl}-2-azabicyclo[2.2.1]heptan-7-amine]
37 nM	COc1cc(C(=O)N2CC3CCC2[C@@H]3N)cc2nc(-c3cc4ccccc4n3CC3CC3)n(Cc3cnn(-c4cncnc4)c3)c12 (stereo partly drawn) [Example 379, (7R)-2-{2-[1-(cyclopropylmethyl)-1H-indol-2-yl]-7-methoxy-1-{[1-(pyrimidin-5-yl)-1H-pyrazol-4-yl]methyl}-1H-1,3-benzodiazole-5-carbonyl}-2-azabicyclo[2.2.1]heptan-7-amine]
